According to patent US6593273B2, “Method for reducing pest damage to corn by treating transgenic corn seeds with pesticide” (priority 2000, dated 2003):

Test system: western and northern corn rootworm
Experiment: Field trial (Example 3): corn rootworm damage by Iowa class, percent of control and synergy threshold
Format: in vivo
Description: The determination of damage by corn rootworm was made according to the following protocol. At stage V4-V6, an evaluation of early stand was made by counting the number of plants per acre. At stage VT-R1, an evaluation of corn rootworm damage was carried out by methods that are well known in the industry, and damage by corn rootworm was reported according to the Iowa 1-6 rating system. In that system, the root systems of 10 corn plants per plot are recovered and scored using the 1-6 rating scale, where: 1=no injury or only a few minor feeding scars, 2=feeding injury evident, but no roots eaten back to 1½ inches of the plant, 3=at least one root eaten off to within 1½ inches of the plant, but never an entire node of roots destroyed, 4=one node of roots eaten back to within 1½ inches of the plant, 5=two nodes (circles) of roots eaten back to within 1½ inches of the plant, 6=three nodes (circles) of roots eaten back to within 1½ inches of the plant.
A field trial was run in accordance with pertinent protocols and in conformance with USDA notification requirements. The purpose of the trial was to determine the efficacy of transgenic event Cry3Bb.11231 in corn seed in combination with corn rootworm seed treatments using imidacloprid.
For each growing site that was selected, the plot design included the following:
The following seed treatment combinations were used for each growing area:
All seed treatments with pesticides were carried out as described in Example 1. In seed treatment number 1 and 2, Gaucho® was used for wire worm protection, but at levels sufficiently low that it would be expected to have no effect on corn rootworms (i.e., at a treatment level of about 60 gm of active/100 kg seed or 0.16 mg active/kernel), otherwise, seed receiving treatment number 2 had only transgenic event Cry3Bb.11231 and no pesticide treatment that would be expected to be effective against corn rootworm.
For seeds having treatments numbered 3 through 5, the pesticides were applied by the methods described in Example 1. For seeds having treatment numbers 6 and 7, commercially available Force® 3G and Lorsban® 15G were applied to the soil in a 5″ band at the time of sowing. The levels of application are as shown and are within the ranges recommended for standard commercial practice.
Corn seeds to be tested were planted and grown at four different locations across several Midwestern states in the United States corn belt according to the protocol described above.
The determination of damage by corn root worm was made according to the protocol described in Example 2.
The combination of imidacloprid seed treatment with corn seed having a Cry3Bb.11231 transgenic event was tested for possible synergy at a level of rootworm damage of 3-6. In the first test, shown in Table 2(A), the percentage of test plants having damage levels of from 3 to 6, on the Iowa 1-6 Scale, was determined for the control and for seeds treated with the pesticide at two levels, and for seeds having the transgenic event, alone and in combination. The following formula was then used to calculate a “synergy threshold”:
(% of control Cry3Bb.11231)*(% of control imidacloprid treatment)/100.
This threshold was compared against the percent of control for the treatment combination (i.e., Cry3Bb.11231 with imidacloprid @ 400 gm/100 kg). If the treatment combination percent of control was below the threshold, then it was concluded that there was synergy.
It was believed that the measurement of rootworm damage at higher damage levels (i.e., levels 3-6) is a useful indicator that correlates with subsequent yield loss due to such damage. The reason for this is that rootworm damage at levels 1 and 2 seldom causes corn plants to fall over and lodge, and such minimal root loss is not believed to reduce the number or weight of kernels per ear. However, root damage at levels of 3 and above increasingly causes lodging and loss of yield. […]

SMILES: O=[N+]([O-])NC1=NCCN1Cc1ccc(Cl)nc1 [Imidacloprid, 1-[(6-chloro-3-pyridinyl)methol]-N-nitro-2-imidazolidinimime]
- PERCENT OF CONTROL (Table 2(A), plants with damage levels 3-6 relative to isohybrid control, imidacloprid @ 400 g/100 kg of seed): 80.5%
- NUMBER OF PLANTS HAVING 3-6 DAMAGE LEVEL (Table 2(B), Iowa 1-6 Scale levels 3-6, imidacloprid @ 400 gm/100 kg): 71.7
- PERCENT OF CONTROL (Table 2(B), damage levels 3-6 relative to untreated control, imidacloprid @ 400 gm/100 kg): 80.5%
- protection against corn rootworm damage (in words) (imidacloprid at 400 gm/100 kg of seed): effective against corn rootworm damage
- CORN ROOTWORM DAMAGE IN EACH IOWA CLASS (IOWA 1-6 SCALE): 1 (plants in Iowa class 1, imidacloprid @ 400 g/100 kg of seed, FORCE and LORSBAN as surface band at planting): 3
- CORN ROOTWORM DAMAGE IN EACH IOWA CLASS (IOWA 1-6 SCALE): 2 (plants in Iowa class 2, imidacloprid @ 400 g/100 kg of seed, FORCE and LORSBAN as surface band at planting): 15
- CORN ROOTWORM DAMAGE IN EACH IOWA CLASS (IOWA 1-6 SCALE): 3 (plants in Iowa class 3, imidacloprid @ 400 g/100 kg of seed, FORCE and LORSBAN as surface band at planting): 36
- CORN ROOTWORM DAMAGE IN EACH IOWA CLASS (IOWA 1-6 SCALE): 4 (plants in Iowa class 4, imidacloprid @ 400 g/100 kg of seed, FORCE and LORSBAN as surface band at planting): 21
- CORN ROOTWORM DAMAGE IN EACH IOWA CLASS (IOWA 1-6 SCALE): 5 (plants in Iowa class 5, imidacloprid @ 400 g/100 kg of seed, FORCE and LORSBAN as surface band at planting): 5
- CORN ROOTWORM DAMAGE IN EACH IOWA CLASS (IOWA 1-6 SCALE): 6 (plants in Iowa class 6, imidacloprid @ 400 g/100 kg of seed, FORCE and LORSBAN as surface band at planting): 0
